Several values for one entry are separate records, joined by “and”; a condition that tells them apart may be missing. Equal values may be shown once.

The first experiment deals with T1, human type 5 17β-hydroxysteroid dehydrogenase (Homo sapiens, UniProt P42330).
T1 construct: screen again a human placental λgt11 cDNA to get the full length cDNA clone; expressed in transfected cells; host or cells: human embryonal kidney 293 cells (pCMV / pCMV-neo vector)
T1 sequence (P42330 1-323): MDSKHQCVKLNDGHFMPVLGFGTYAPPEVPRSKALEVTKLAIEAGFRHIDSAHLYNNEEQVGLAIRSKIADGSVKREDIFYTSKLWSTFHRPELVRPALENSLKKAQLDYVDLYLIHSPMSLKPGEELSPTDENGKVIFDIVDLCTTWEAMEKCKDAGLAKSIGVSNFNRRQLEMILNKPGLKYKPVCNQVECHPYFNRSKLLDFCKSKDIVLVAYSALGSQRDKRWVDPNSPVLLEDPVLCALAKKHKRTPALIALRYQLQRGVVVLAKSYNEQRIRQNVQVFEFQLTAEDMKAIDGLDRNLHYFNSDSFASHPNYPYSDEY
The experiment is described as follows: Inhibition of human type 5 17β-HSD activity in transfected 293 cells.
Conditions: not given
It is filed as cell-based. On the set-up: Inhibition Type V 17B-HSD % Inh. At 3 · 10^−7 (second value in parentheses): concentration or dose not given beside the values. The essentials:
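Human type 5 17β-HSD cDNA in a CMV-promoter vector, transfected by calcium phosphate (1 to 10 μg plasmid per 10^6 cells) into 293 cells grown in DMEM with 10% FBS at 37 °C.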
In the case of `CC(=O)O[C@]1(C(C)=O)CCC2C3C=C(C)C4=CC(=O)CC[C@]4(C)C3CC[C@@]21C` (stereo partly shown) [megestrol acetate, reference compound], the “inhibition of type 5 17β-hydroxysteroid dehydrogenase (in words)” value was “inhibit that type 5 enzyme”.

Still in this experiment, the particulars now being: Inhibition Type V 17β-HSD IC50, Table 4′.
Consider `CC1(C)CC[C@@]2(CCC3C4CCc5cc(C(N)=O)ccc5C4CCC32C)OC1=O` (stereo partly shown) [EM-1404], for which the IC50 stood at 3.2 ± 1.5 nM.

The experiment is the same for the next values; noted with them: Table 4′; 3 · 10^−6.
As to `COCCOc1cc2c(cc1C(F)(F)F)[C@H]1CC[C@@]3(C)[C@@H](CC[C@@]34CCC(C)(C)C(=O)O4)[C@@H]1CC2` [EM-1438, 3-(2′-Methoxyethoxy)-2-trifluoromethyl-1,3,5(10)-estratrien-17(R)-spiro-2′-(5′,5′-dimethyl-6′-oxo)tetrahydropyran], the “Inhibition Type V 17β-HSD % Inh. at 3 · 10^−6” value is on record as 95.2%.
For the compound `CC1(C)CC[C@@]2(CC[C@H]3[C@@H]4CCc5c(cc(Br)c(O)c5Br)[C@H]4CC[C@@]32C)OC1=O` [EM-1382-CS], the “Inhibition Type V 17β-HSD % Inh. at 3 · 10^−6” value is 86%.
On to `CC1(C)CCC2(CCC3C4CCc5cc(C(=O)OCc6ccccc6)ccc5C4CCC32C)OC1=O` (stereo not shown) [EM-1398], for which the “Inhibition Type V 17β-HSD % Inh. at 3 · 10^−6” value is given as 89%.

The experiment is the same for the next values; noted with them: Table 4′; 3 · 10^−7.
As to `COCCOc1cc2c(cc1C(F)(F)F)[C@H]1CC[C@@]3(C)[C@@H](CC[C@@]34CCC(C)(C)C(=O)O4)[C@@H]1CC2` [EM-1438, 3-(2′-Methoxyethoxy)-2-trifluoromethyl-1,3,5(10)-estratrien-17(R)-spiro-2′-(5′,5′-dimethyl-6′-oxo)tetrahydropyran], the “Inhibition Type V 17β-HSD % Inh. at 3 · 10^−7” value is 90.6%.
As for `CC1(C)CC[C@@]2(CC[C@H]3[C@@H]4CCc5c(cc(Br)c(O)c5Br)[C@H]4CC[C@@]32C)OC1=O` [EM-1382-CS], the “Inhibition Type V 17β-HSD % Inh. at 3 · 10^−7” value amounted to 74%.
On to `CC1(C)CCC2(CCC3C4CCc5cc(C(=O)OCc6ccccc6)ccc5C4CCC32C)OC1=O` (stereo not shown) [EM-1398], for which the “Inhibition Type V 17β-HSD % Inh. at 3 · 10^−7” value is on record as 70%.

Still in this experiment, the particulars now being: Table 4′; read-out: Inhibition Type V 17β-HSD IC50.
For `CC1(C)CC[C@@]2(CCC3C4CCc5cc(F)ccc5C4CC[C@@]32C)OC1=O` (stereo partly shown) [EM-1157-CS], the IC50 was 4 nM and 10 nM.
Same read-out and setting: to `CN(C)C(=O)c1cc2c(cc1O)CCC1C2CCC2(C)C1CCC21CCC(C)(C)C(=O)O1` (stereo not shown) [EM-01661-B] belongs 19.2 ± 1 nM.
In the case of `CC12CCC3c4ccc(F)cc4CCC3C1CCC21CCCC(=O)O1` (stereo not shown) [EM-1170-CS], the half-inhibitory concentration (IC50) amounted to 7 ± 1 nM.
`COCCOc1cc2c(cc1C(=O)OC)C1CC[C@@]3(C)C(CC[C@@]34CCC(C)(C)C(=O)O4)C1CC2` (stereo partly drawn) [EM-1402-CS, 2-Carbomethoxy-3-(2″-methoxyethyloxy)-1,3,5(10)-estratrien 17(R)-spiro-2′-(5′,5′-dimethyl-6′-oxo)tetrahydropyran]: the IC50 is 12 nM.
`COCCOc1cc2c(cc1C(=O)N(C)C)C1CCC3(C)C(CCC34CCC(C)(C)C(=O)O4)C1CC2` (stereo not shown) [EM-1413-CS]: the IC50 stood at 17 nM.
As for `COCCOc1cc2c(cc1Cl)C1CCC3(C)C(CCC34CCC(C)(C)C(=O)O4)C1CC2` (stereo not shown) [EM-1371-CS], the IC50 was 19 nM and 20 nM.
In the case of `CC1(C)CCC2(CCC3C4CCc5ccccc5C4CCC32C)OC1=O` (stereo not shown) [CS-224], the IC50 was 2.9 nM and 10.7 nM.
On the same count and under the same terms, for `CC1(C)CC[C@@]2(CCC3C4CCc5cc(C(=O)O)ccc5C4CC[C@@]32C)OC1=O` (stereo partly drawn) [EM-1401, 3-Carboxy-1,3,5(10)-estratrien-17(R)-spiro-2′-(5′,5′-dimethyl-6′-oxo)tetrahydropyran] the value was 4 ± 1.5 nM.
Turning to `CN(C)CCOc1ccc2c(c1)CCC1C2CCC2(C)C1CCC21CCC(C)(C)C(=O)O1` (stereo not shown) [EM-1389-CS], the IC50 turned out to be 25 nM.
On to `COc1ccc2c(c1)CCC1C2CCC2(C)C1CCC21CCC(C)(C)C(=O)O1` (stereo not shown) [EM-1370], for which the IC50 worked out at 43 nM.
Turning to `CCOc1ccc2c(c1)CCC1C2CC[C@@]2(C)C1CC[C@@]21CCC(C)(C)C(=O)O1` (stereo partly drawn) [EM-1369, 3-Ethoxy-1,3,5(10)-estratrien-17(R)-spiro-2′-(5′,5′-dimethyl-6′-oxo)-tetrahydropyran], the IC50 stood at 46 nM.
For the compound `CN(C)C(=O)c1ccc2c(c1)CCC1C2CCC2(C)C1CCC21CCC(C)(C)C(=O)O1` (stereo not shown) [EM-1403], the 50% inhibitory concentration (IC50) was determined as 7.2 ± 1.6 nM.
Consider `COCCOc1ccc2c(c1)CCC1C2CCC2(C)C1CCC21CCC(C)(C)C(=O)O1` [EM-1368-CS, 3-Methoxyethoxy-1,3,5(10)-estratrien-17(R)-spiro-2′-(5′,5′-dimethyl-6′-oxo)-tetrahydropyran], for which the IC50 came out at 21 nM.
For the compound `COc1c(Br)cc2c(c1Br)CCC1C2CCC2(C)C1CCC21CCC(C)(C)C(=O)O1` (stereo not shown) [EM-1385-CS], the IC50 amounted to 51 nM.
On to `COCCOc1cc2c(cc1C(N)=O)C1CC[C@@]3(C)C(CC[C@@]34CCC(C)(C)C(=O)O4)C1CC2` (stereo partly drawn) [EM-1424, 2-Carbamoyl-3-(2″-methoxyethyloxy)-1,3,5(10)-estratrien 17(R)-spiro-2′-(5′,5′-dimethyl-6′-oxo)tetrahydropyran], for which the IC50 came out at 9.5 nM.
Still for that read-out and setting: to `CC1(C)CC[C@@]2(CCC3C4CCc5cc6oncc6cc5C4CC[C@@]32C)OC1=O` (stereo partly drawn) [EM-1407-CS, 1,3,5(10)-estratrien-(2,3-oximino)-17(R)-spiro-2′-(5′,5′-dimethyl-6′-oxo)tetrahydropyran] belongs 12 ± 3 nM; to `COC(=O)c1cc2c(cc1O)CCC1C2CCC2(C)C1CCC21CCC(C)(C)C(=O)O1` (stereo not shown) [EM-01662], 35 ± 5 nM; to `COc1cc2c(cc1C(F)(F)F)C1CCC3(C)C(CCC34CCC(C)(C)C(=O)O4)C1CC2` [EM-1409, 3-Methoxy-2-trifluoromethyl-1,3,5(10)-estratrien-17(R)-spiro-2′-(5′,5′-dimethyl-6′-oxo)tetrahydropyran], 170 ± 70 nM.
Turning to `COC(=O)C1CCC2(CCC3C4CCc5cc(O)ccc5C4CCC32C)OC1=O` [PB-132-146, 3-Hydroxy-1,3,5(10)-estratrien-17(R)-2′-(5′-methoxycarbonyl-6′-oxo)tetrahydropyran], the IC50 is 72 ± 3 nM.
As to `CC1(C)CCC2(CCC3C4CCc5cc(O)c(C(N)=O)cc5C4CCC32C)OC1=O` (stereo not shown) [EM-01660], the IC50 amounted to 5.6 ± 0.4 nM.

Still in this experiment, the particulars now being: first of two concentrations, 3 · 10^−7.
Take `C[C@]12CCC(=O)C=C1C=C[C@@H]1[C@@H]2CC[C@]2(C)C(=O)C3(CC4CC4C3)C[C@@H]12` (stereo partly shown) [EM-1299, 4,6-Androstadien-3,17-dione-16-spirobicyclo[3′.1′.0′]-hexane]: the “Inhibition Type V 17B-HSD % Inh. At 3 · 10^−7 (first value in parentheses)” value was “(73%”.
In the case of `CC1=C[C@@H]2[C@H](CC[C@]3(C)C(=O)C4(CCCCC4)C[C@@H]23)[C@@]2(C)CCC(=O)C=C12` [EM-925], the “Inhibition Type V 17B-HSD % Inh. At 3 · 10^−7 (first value in parentheses)” value is given as “(46%”.

Still in this experiment, the particulars now being: read-out: Inhibition Type V 17B-HSD IC50.
In the case of `CCC[C@]1(F)CC2C3C=CC4=CC(=O)CC[C@]4(C)C3CC[C@]2(C)C1=O` (stereo partly shown) [EM-1183], the IC50 was found to be 4.6 ± 0.4 nM.
Take `CCCC(=O)O[C@]1(C)C(=O)CCC2C3C=C(C)C4=CC(=O)CC[C@]4(C)C3CC[C@@]21C` (stereo partly shown) [EM-1078]: the IC50 worked out at 3.8 ± 0.6 nM.
Turning to `CC(C)C[C@@H]1CC2C3C=CC4=CC(=O)CC[C@]4(C)C3CC[C@]2(C)C1=O` (stereo partly shown) [EM-1273-CS], the IC50 worked out at 9 nM.
Regarding `CCC[C@@H]1CC2C3C=CC4=CC(=O)CC[C@]4(C)C3CC[C@]2(C)C1=O` (stereo partly shown) [EM-1097], the IC50 amounted to 10 nM.
In the case of `CC12C=CC(=O)C=C1C=CC1C2CCC2(C)C(=O)C3(CCCCC3)CC12` (stereo not shown) [CS-204], the IC50 is 94 nM.

Still in this experiment, the particulars now being: read-out: Inhibition Type V 17β-HSD IC50.
Turning to `CC(=O)[C@@]1(OC(=O)CCCCF)CCC2C3C=C(C)C4=CC(=O)CC[C@]4(C)C3CC[C@@]21C` (stereo partly shown) [EM-1195-CS], the IC50 was 4 ± 0.5 nM.
Same read-out and setting: to `CCC(=O)O[C@]1(C(C)=O)CCC2C3C=C(C)C4=CC(=O)C[C@H](C)[C@]4(C)C3CC[C@@]21C` (stereo partly shown) [CS-243] belongs 3.5 ± 0.1 nM; to `COc1ccc(CC(=O)O[C@]2(C(C)=O)CCC3C4C=C(C)C5=CC(=O)C=C[C@]5(C)C4CC[C@@]32C)cc1` (stereo partly shown) [EM-1291], 7 ± 1 nM.
On to `CC(=O)O[C@]1(C(C)=O)CCC2C3C=C(C)C4=CC(=O)CC[C@]4(C)C3CC[C@@]21C` (stereo partly shown) [megestrol acetate, reference compound], for which the 50% inhibitory concentration (IC50) came out at 17.4 ± 2.8 nM.
With `CCCC(=O)OC1(C(C)=O)CCC2C3C=C(C)C4=CC(=O)CC(C)C4(C)C3CCC21C` (stereo not shown) [CS-245], the IC50 is 3.2 ± 0.1 nM.
In the case of `CC(=O)O[C@]1(C(=O)N(C)C)CCC2C3C=C(C)C4=CC(=O)CC[C@]4(C)C3CC[C@@]21C` (stereo partly shown) [EM-1159], the IC50 turned out to be 14 ± 2 nM.

The experiment is the same for the next values; noted with them: second of two concentrations, 3 · 10^−7.
Turning to `C[C@]12CCC(=O)C=C1C=C[C@@H]1[C@@H]2CC[C@]2(C)C(=O)C3(CC4CC4C3)C[C@@H]12` (stereo partly shown) [EM-1299, 4,6-Androstadien-3,17-dione-16-spirobicyclo[3′.1′.0′]-hexane], the “Inhibition Type V 17B-HSD % Inh. At 3 · 10^−7 (second value in parentheses)” value is on record as 99) %.
In the case of `CC1=C[C@@H]2[C@H](CC[C@]3(C)C(=O)C4(CCCCC4)C[C@@H]23)[C@@]2(C)CCC(=O)C=C12` [EM-925], the “Inhibition Type V 17B-HSD % Inh. At 3 · 10^−7 (second value in parentheses)” value is recorded as 81) %.

One may read the IC50 as the midpoint of a concentration-inhibition curve.

The values above are taken from patent US6541463B1, “Inhibitors of type 5 and type 3 17β-hydroxysteroid dehydrogenase and methods for their use” (Endorecherche, Inc., priority 1998, dated 2003).
